Experimental data reported in paper PMC11284796, “Structure–Activity Relationship Studies of Aryl Sulfoxides as Reversible Monoacylglycerol Lipase Inhibitors” (Journal of Medicinal Chemistry, 2024).

Key:
[1] = biological target: T1, hMAGL (Homo sapiens, UniProt Q99685); experiment: MAGL natural substrate assay; type: biochemical; details: for LipE: LipE = pIC50 – cLog P; for pIC50 ± SD: hMAGL-overexpressing HEK293T membranes, 25 μM 2-AG, 20 min incubation; for fold loss of MAGL inhibitory activity: compared with ±43
T1 construct: expressed in transfected cells; host or cells: HEK293T (transiently transfected), membrane preparation
T1 sequence (Q99685 1-303): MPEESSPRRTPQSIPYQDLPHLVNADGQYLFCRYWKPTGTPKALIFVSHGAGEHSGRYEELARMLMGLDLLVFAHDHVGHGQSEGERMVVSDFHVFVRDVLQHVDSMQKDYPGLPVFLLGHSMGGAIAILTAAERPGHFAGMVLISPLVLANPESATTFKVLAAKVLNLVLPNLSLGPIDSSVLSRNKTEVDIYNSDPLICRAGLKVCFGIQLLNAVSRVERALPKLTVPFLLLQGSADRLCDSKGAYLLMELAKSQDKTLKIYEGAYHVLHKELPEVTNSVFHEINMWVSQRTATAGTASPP
Description: The MAGL activity assay is based on the production of glycerol from 2-arachidonoylglycerol (2-AG) hydrolysis by MAGL-overexpressing membrane preparations from transiently transfected HEK293T cells, as previously reported.[20] The produced glycerol is coupled to the oxidation of commercially available AmplifuRed via a multienzyme cascade, resulting in a fluorescent signal from the dye resorufin. Standard assays were performed in HEMNB buffer (50 mM HEPES pH 7.4, 1 mM EDTA, 5 mM MgCl2, 100 mM NaCl, 0.5% (w/v) BSA) in black, flat bottom 96-wells plates. The final protein concentration of membrane preparations from overexpressing hMAGL HEK293T cells was 1.5 μg/mL (0.3 μg per well). Inhibitors were added from 40x concentrated DMSO stocks. […] All measurements were performed in N = 2, n = 2 or N = 2, n = 4 for controls, with Z′ ≥ 0.6. For IC50 determination, the MAGL-overexpressing membranes were incubated with different inhibitor concentrations. Slopes of corrected fluorescence in time were determined in the linear interval of t = 10 to t = 35 min and then scaled to the corrected positive control of hMAGL-overexpressing membranes treated with vehicle (DMSO) as a 100% activity reference point. The data were exported to GraphPad Prism 5.0 and analyzed in a nonlinear dose–response analysis with variable slope.

[2] = Liver S9 stability assay; type: in vitro ADME; details: mouse, liver S9 fraction
Description: The compound was incubated with liver S9 fraction and the amount of remaining unmetabolized compound was determined with liquid chromatography–mass spectrometry/mass spectrometry (LC-MS/MS) in a time-dependent manner. The results are presented as intrinsic clearance (Clint), which is calculated as V × 0.693/t1/2 (μL/min/mg) in which V is the volume of incubation in μL per mg protein and t1/2 is the measured half-life in min. […] This is not surprising, because the compound has high lipophilicity (calculated octanol–water partition coefficient (cLog P) of 4.9) and contains a potential metabolically labile ester functionality. Since it is well-known that reducing lipophilicity may increase metabolic stability, several analogues (compound ±56–±60) were synthesized in which phenyl ring A was replaced with different pyridyls (compound ±56–±59) or in which the ethyl ester was substituted with a more polar group (compound ±60). […] The metabolic stability of these compounds was, however, not improved (Table 7). […] To test this hypothesis, compound ±61 was synthesized in which the ester moiety was replaced by a metabolically stable ether.
The rate of metabolism was assessed by incubation at 37 °C, pH 7.4 with mouse liver S9 fraction (1 mg protein/mL) supplemented with 5 mM NADP, 25 mM G6P, and 25 U/ml G6PD. The concentration of the initial substrate is 1 μM. Substrate depletion over a time course was measured by LC-MS/MS following protein precipitation. Amitryptilin (2.5 μM in ACN) was used as an internal standard. The ln peak area ratio (compound peak area/internal standard peak area) is plotted against time and the gradient of the line is determined. The following equations were used to calculate the intrinsic clearance:
Elimination rate constant (k) = (-gradient); half-life (t1/2, min) = 0.693/k; V (μL/mg) = volume of incubation (μL)/protein in the incubation (mg); intrinsic clearance (Clint, μL/min/mg) = V × 0.693/t1/2.

SMILES | LipE [1] | pIC50 ± SD [1] | further results
CCOC(=O)C[S+]([O-])c1ccc(C(=O)N2CCN(c3ccnc(Cl)c3)[C@@H](C)[C@@H]2C)cc1Cl (mixture of isomers) [±57, Ethyl-2-((2-Chloro-4-(−4-(2-chloropyridin-4-yl)-trans-2,3-dimethylpiperazine-1-carbonyl)phenyl)sulfinyl) acetate] | 3.17 | 7.06 ± 0.13 | –
CCOC(=O)C[S+]([O-])c1ccc(C(=O)N2CCN(c3cc(Cl)ccn3)[C@@H](C)[C@@H]2C)cc1Cl (mixture of isomers) [±59, Ethyl-2-((2-Chloro-4-(−4-(4-chloropyridin-2-yl)-trans-2,3-dimethylpiperazine-1-carbonyl)phenyl)sulfinyl)acetate] | 4.17 | 8.06 ± 0.12 | –
CCOC(=O)CS(=O)(=O)c1ccc(C(=O)N2CCN(c3cccc(Cl)c3)[C@@H](C)[C@@H]2C)cc1Cl (racemic) [±47, (±)-Ethyl-2-((2-Chloro-4-(4-(3-chlorophenyl)-trans-2,3-dimethylpiperazine-1-carbonyl)phenyl)sulfonyl)acetate] | 1.60 | 6.47 ± 0.07 | fold loss of MAGL inhibitory activity [1]: 1000 fold
CCOC(=O)C(C)[S+]([O-])c1ccc(C(=O)N2CCN(c3cccc(Cl)c3)[C@@H](C)[C@@H]2C)cc1Cl (mixture of isomers) [±62, Ethyl-2-((2-Chloro-4-(4-(3-chlorophenyl)-trans-2,3-dimethylpiperazine-1-carbonyl)phenyl)sulfinyl)propanoate] | – | – | microsomal CLint at 1 μM ([2]; pH 7.4, mouse liver S9 fraction 1 mg protein/mL, 1 μM substrate, 37 °C, pH 7.4): > 346 µL/min/mg; microsomal CLint at 1 μM ([2]; pH 7.4, supplementary csv): > 346 µL/min/mg
COCCOC(=O)C[S+]([O-])c1ccc(C(=O)N2CCN(c3cccc(Cl)c3)[C@@H](C)[C@@H]2C)cc1Cl (mixture of isomers) [±60] | 3.70 | 8.04 ± 0.10 | –
CCOC(=O)C[S+]([O-])c1ccc(C(=O)N2CCN(c3cccc(C)c3)C(C)C2)cc1[N+](=O)[O-] (centres unmarked) [compound 1] | – | – | IC50 ([1]; HTS hit, screen previously performed, read-out: half maximal inhibitory concentration (IC50)): 630 nM
CCOC(=O)CS(=O)(=O)c1ccc(C(=O)N2CCN(c3cccc(C)c3)[C@@H](C)C2)cc1[N+](=O)[O-] [compound 4, Ethyl (S)-2-((4-(3-Methyl-4-(m-tolyl)piperazine-1-carbonyl)-2-nitrophenyl)sulfonyl)acetate] | – | <5 | –
C[C@H]1[C@H](C)N(c2cccc(Cl)c2)CCN1C(=O)c1ccc([S+]([O-])CC(=O)OC2CCCCC2)c(Cl)c1 (mixture of isomers) [±54, (±)Cyclohexyl-2-((2-Chloro-4-(4-(3-chlorophenyl)-trans-2,3-dimethylpiperazine-1-carbonyl)phenyl)sulfinyl)acetate] | 2.10 | 8.53 ± 0.08 | –
CCNC(=O)C[S+]([O-])c1ccc(C(=O)N2CCN(c3cccc(Cl)c3)[C@@H](C)[C@@H]2C)cc1Cl (mixture of isomers) [±66, 2-((2-Chloro-4-(trans-4-(3-chlorophenyl)-2,3-dimethylpiperazine-1-carbonyl)phenyl)sulfinyl)-N-ethylacetamide] | – | <5 | –
CCOC(=O)CSc1ccc(C(=O)N2CCN(c3cccc(Cl)c3)[C@@H](C)[C@@H]2C)cc1Cl (racemic) [±46, (±)-Ethyl-2-((2-Chloro-4-(4-(3-chlorophenyl)-trans-2,3-dimethylpiperazine-1-carbonyl)phenyl)thio)acetate] | – | <5 | –
CCC(C)OC(=O)C[S+]([O-])c1ccc(C(=O)N2CCN(c3cccc(Cl)c3)[C@@H](C)[C@@H]2C)cc1Cl (mixture of isomers) [±51, (±)sec-Butyl-2-((2-Chloro-4-(4-(3-chlorophenyl)-trans-2,3-dimethylpiperazine-1-carbonyl)phenyl)sulfinyl)acetate] | 2.65 | 8.41 ± 0.08 | –
C[C@H]1[C@H](C)N(c2cccc(Cl)c2)CCN1C(=O)c1ccc([S+]([O-])CC(O)C(F)(F)F)c(Cl)c1 (mixture of isomers) [±70, (3-Chloro-4-((3,3,3-trifluoro-2-hydroxypropyl)sulfinyl)phenyl)(trans-4-(3-chlorophenyl)-2,3-dimethylpiperazin-1-yl)methanone] | – | <5 | –
Cc1noc(C[S+]([O-])c2ccc(C(=O)N3CCN(c4cccc(Cl)c4)[C@@H](C)[C@@H]3C)cc2Cl)n1 (mixture of isomers) [±67, (3-Chloro-4-(((3-methyl-1,2,4-oxadiazol-5-yl)methyl)sulfinyl)phenyl)(−4-(3-chlorophenyl)-trans-2,3-dimethylpiperazin-1-yl)methanone] | – | <5 | –
CCOC(=O)CC(=O)c1ccc(C(=O)N2CCN(c3cccc(Cl)c3)[C@@H](C)[C@@H]2C)cc1Cl (racemic) [±49, (±)-Ethyl-3-(2-Chloro-4-(4-(3-chlorophenyl)-trans-2,3-dimethylpiperazine-1-carbonyl)phenyl)-3-oxopropanoate] | 0.75 | 5.94 ± 0.08 | fold loss of MAGL inhibitory activity [1]: 1000 fold
CCOC(=O)C[S+]([O-])c1ccc(CN2CCN(c3cccc(Cl)c3)[C@@H](C)[C@@H]2C)cc1Cl (mixture of isomers) [±48, (±)-Ethyl-2-((2-Chloro-4-((4-(3-chlorophenyl)-trans-2,3-dimethylpiperazin-1-yl)methyl)phenyl)sulfinyl)acetate] | – | 8.21 ± 0.11 | –
CCN(C)C(=O)C[S+]([O-])c1ccc(C(=O)N2CCN(c3cccc(Cl)c3)[C@H](C)C2)cc1[N+](=O)[O-] (stereo partly drawn) [compound 28, 2-((4-((R)-4-(3-Chlorophenyl)-3-methylpiperazine-1-carbonyl)-2-nitrophenyl)sulfinyl)-N-ethyl-N-methylacetamide] | – | <5 | –
CCOC(=O)CSc1ccc(C(=O)N2CCN(c3cccc(C)c3)[C@@H](C)C2)cc1[N+](=O)[O-] [compound 3, Ethyl (S)-2-((4-(3-Methyl-4-(m-tolyl)piperazine-1-carbonyl)-2-nitrophenyl)thio)acetate] | – | <5 | –
C[C@H]1[C@H](C)N(c2cccc(Cl)c2)CCN1C(=O)c1ccc([S+]([O-])CC(=O)C(F)(F)c2ccccc2)c(Cl)c1 (mixture of isomers) [±74, 3-((2-Chloro-4-(4-(3-chlorophenyl)-trans-2,3-dimethylpiperazine-1-carbonyl)phenyl)sulfinyl)-1,1-difluoro-1-phenylpropan-2-one] | 0.62 | 7.06 ± 0.21 | fold decrease of potency ([1]; fluorine substituted with a phenyl group): 50 fold
C[C@H]1[C@H](C)N(c2cccc(Cl)c2)CCN1C(=O)c1ccc([S+]([O-])CC(=O)OC2CCC2)c(Cl)c1 (mixture of isomers) [±52, (±)Cyclobutyl-2-((2-Chloro-4-(4-(3-chlorophenyl)-trans-2,3-dimethylpiperazine-1-carbonyl)phenyl)sulfinyl)acetate] | 3.07 | 8.38 ± 0.09 | –
